Data as given in article PMC7260106 (Toxicology in vitro : an international journal published in …, 2020).

Experiments:
Ah receptor (AhR) [1] = molecular target: T1, Ah receptor (AhR) (Mus musculus, UniProt P30561); assay: yAhR nuclear translocation in yAHAYc6 cells, fluorescence microscopy; assay type: cell-based
T1 sequence (P30561 10-848): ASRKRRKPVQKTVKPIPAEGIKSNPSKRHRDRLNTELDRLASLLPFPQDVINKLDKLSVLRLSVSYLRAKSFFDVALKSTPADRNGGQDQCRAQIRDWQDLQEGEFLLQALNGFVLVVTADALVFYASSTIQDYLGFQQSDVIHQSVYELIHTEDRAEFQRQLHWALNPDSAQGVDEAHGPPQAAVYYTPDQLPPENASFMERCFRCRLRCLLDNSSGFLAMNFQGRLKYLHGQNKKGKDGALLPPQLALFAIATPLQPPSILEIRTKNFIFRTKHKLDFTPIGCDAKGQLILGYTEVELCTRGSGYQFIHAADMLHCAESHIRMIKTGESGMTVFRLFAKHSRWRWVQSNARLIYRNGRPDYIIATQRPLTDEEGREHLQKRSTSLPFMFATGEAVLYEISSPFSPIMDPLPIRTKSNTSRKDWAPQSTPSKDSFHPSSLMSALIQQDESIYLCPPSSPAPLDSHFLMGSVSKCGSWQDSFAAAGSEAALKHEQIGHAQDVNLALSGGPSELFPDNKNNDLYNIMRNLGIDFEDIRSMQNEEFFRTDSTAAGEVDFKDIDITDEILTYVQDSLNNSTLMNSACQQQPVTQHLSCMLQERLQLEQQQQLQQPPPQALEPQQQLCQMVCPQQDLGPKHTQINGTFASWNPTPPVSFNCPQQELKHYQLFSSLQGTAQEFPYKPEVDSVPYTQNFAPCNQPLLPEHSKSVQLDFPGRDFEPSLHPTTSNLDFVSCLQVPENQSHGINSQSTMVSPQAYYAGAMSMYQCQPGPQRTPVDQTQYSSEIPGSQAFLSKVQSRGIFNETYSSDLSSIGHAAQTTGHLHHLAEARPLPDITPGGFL

Ah receptor (AhR) [2] = molecular target: T1, Ah receptor (AhR); assay: yAhR nuclear translocation in yAHAYc6 cells; assay type: cell-based

SMILES	yAhR nuclear translocation in yAHAYc6 cells, fluorescence microscopy (Ah receptor (AhR) [1])	EC50 (Ah receptor (AhR) [2])
Cc1ccc2cc3c(ccc4ccccc43)c3c2c1CC3 [3-methylcholanthrene]	known AhR agonists (TCDD, DBA, PCB77, indirubin, 3MC and BNF	
Clc1ccc(-c2ccc(Cl)c(Cl)c2)cc1Cl [PCB77, 3,3’,4,4’-Tetrachlorobiphenyl]	known AhR agonists (TCDD, DBA, PCB77, indirubin, 3MC and BNF	
Clc1cc2c(cc1Cl)Oc1cc(Cl)c(Cl)cc1O2 [TCDD, 2,3,7,8-tetrachlorodibenzo-p-dioxin]		0.2 nM
c1ccc2c(c1)ccc1cc3c(ccc4ccccc43)cc12 [dibenz(a,h)anthracene]	known AhR agonists (TCDD, DBA, PCB77, indirubin, 3MC and BNF	
O=C1Nc2ccccc2/C1=C1/Nc2ccccc2C1=O [indirubin]	known AhR agonists (TCDD, DBA, PCB77, indirubin, 3MC and BNF	
